As a reminder, the IC50 is the concentration at which inhibition is half-maximal.

The target in this assay is T1, human CTPS1 (Homo sapiens, UniProt P17812).
T1 sequence (P17812 1-591): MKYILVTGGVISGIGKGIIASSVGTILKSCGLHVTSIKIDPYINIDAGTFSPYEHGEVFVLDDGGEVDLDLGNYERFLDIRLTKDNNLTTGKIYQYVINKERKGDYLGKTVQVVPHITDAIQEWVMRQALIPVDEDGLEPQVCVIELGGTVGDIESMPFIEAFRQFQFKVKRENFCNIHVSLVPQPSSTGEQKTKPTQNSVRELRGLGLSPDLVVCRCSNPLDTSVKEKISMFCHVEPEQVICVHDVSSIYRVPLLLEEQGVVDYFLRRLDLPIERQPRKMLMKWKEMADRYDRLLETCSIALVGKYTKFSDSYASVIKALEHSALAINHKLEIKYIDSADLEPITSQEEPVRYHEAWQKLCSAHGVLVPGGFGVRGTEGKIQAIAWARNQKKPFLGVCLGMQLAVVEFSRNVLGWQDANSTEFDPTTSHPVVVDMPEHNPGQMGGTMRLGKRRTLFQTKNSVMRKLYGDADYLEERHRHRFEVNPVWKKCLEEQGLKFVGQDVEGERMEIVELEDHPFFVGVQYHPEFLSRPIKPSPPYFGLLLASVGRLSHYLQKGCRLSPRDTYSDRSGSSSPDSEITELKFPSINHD
The experiment in a line: ADP-Glo assay, human CTPS1 enzyme inhibition. Format: biochemical. The note with it: wild-type human CTPS1, 25 nM enzyme; ADP-Glo; read-out: ADP-Glo_WT_hCTPS1—25 nM_IC50 (IC50). The method, boiled down: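 ADP-Glo luminescence quantified ADP produced by 25 nM purified human CTPS1 (full length, FLAG-His tagged) at 25° C within the linear phase. Final substrates: ATP 120 μM, UTP 160 μM, GTP 60 μM, L-glutamine 100 μM; 1% DMSO; pH 7.4 HEPES buffer with Mg2+, KCl, DTT. Compound pre-incubated with enzyme 10 min, then with ATP/UTP 10 min.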
In general terms: ADP-Glo turns the ADP formed in a reaction into a luminescent signal.

Consider `CCOc1cncc(-c2cnc(C(=O)N[C@@H](c3cc(NS(=O)(=O)C4CC4)ccn3)[C@H]3CCCN3C)s2)n1` [I-118, N-((R)-(4-(cyclopropanesulfonamido)pyridin-2-yl)((R)-1-methylpyrrolidin-2-yl)methyl)-5-(6-ethoxypyrazin-2-yl)thiazole-2-carboxamide], for which the IC50 is 5 to 25 nM.
Regarding `CCOc1cncc(-c2cnc(C(=O)N[C@H](c3cc(NS(=O)(=O)C4CC4)ccn3)[C@@H]3CC(=O)N(C)C3)s2)n1` [I-119, N-((S)-(4-(cyclopropanesulfonamido)pyridin-2-yl)((R)-1-methyl-5-oxopyrrolidin-3-yl)methyl)-5-(6-ethoxypyrazin-2-yl)thiazole-2-carboxamide], the IC50 is 25 to 50 nM.
As for `CCOc1cncc(-c2cnc(C(=O)N[C@H](c3cc(NS(=O)(=O)C4CC4)ccn3)[C@H]3CC(=O)N(C)C3)s2)n1` [I-120, N-((S)-(4-(cyclopropanesulfonamido)pyridin-2-yl)((S)-1-methyl-5-oxopyrrolidin-3-yl)methyl)-5-(6-ethoxypyrazin-2-yl)thiazole-2-carboxamide], the figure is 25 to 50 nM; as for `CCOc1cncc(-c2cnc(C(=O)N[C@@H](c3cc(NS(=O)(=O)C4CC4)ccn3)[C@@H]3CC(=O)N(C)C3)s2)n1` [I-121, N-((R)-(4-(cyclopropanesulfonamido)pyridin-2-yl)((R)-1-methyl-5-oxopyrrolidin-3-yl)methyl)-5-(6-ethoxypyrazin-2-yl)thiazole-2-carboxamide], 5 to 25 nM.
As for `CCOc1cncc(-c2cnc(C(=O)N[C@@H](c3cc(NS(=O)(=O)C4CC4)ccn3)[C@H]3CC(=O)N(C)C3)s2)n1` [I-122, N-((R)-(4-(cyclopropanesulfonamido)pyridin-2-yl)((S)-1-methyl-5-oxopyrrolidin-3-yl)methyl)-5-(6-ethoxypyrazin-2-yl)thiazole-2-carboxamide], the figure is 5 to 25 nM; as for `CCOc1cncc(-c2cnc(C(=O)N[C@@H](CN3C[C@H]4CC[C@@H]3CO4)c3cc(NS(=O)(=O)C4CC4)ccn3)s2)n1` [I-123, N-((S)-2-((1R,4R)-2-oxa-5-azabicyclo[2.2.2]octan-5-yl)-1-(4-(cyclopropanesulfonamido)pyridin-2-yl)ethyl)-5-(6-ethoxypyrazin-2-yl)thiazole-2-carboxamide], 50 to 100 nM; as for `CCOc1cncc(-c2cnc(C(=O)N[C@H](CN3C[C@H]4CC[C@@H]3CO4)c3cc(NS(=O)(=O)C4CC4)ccn3)s2)n1` [I-124, N-((R)-2-((1R,4R)-2-oxa-5-azabicyclo[2.2.2]octan-5-yl)-1-(4-(cyclopropanesulfonamido)pyridin-2-yl)ethyl)-5-(6-ethoxypyrazin-2-yl)thiazole-2-carboxamide], 25 to 50 nM.
The value for `CCOc1cncc(-c2cnc(C(=O)N[C@@H](CN3CC[C@@]4(CCOC4)C3)c3cc(NS(=O)(=O)C4CC4)ccn3)s2)n1` [I-125, N-((S)-1-(4-(cyclopropanesulfonamido)pyridin-2-yl)-2-((R)-2-oxa-7-azaspiro[4.4]nonan-7-yl)ethyl)-5-(6-ethoxypyrazin-2-yl)thiazole-2-carboxamide] was 25 to 50 nM; that for `CCOc1cncc(-c2cnc(C(=O)N[C@H](CN3CC[C@@]4(CCOC4)C3)c3cc(NS(=O)(=O)C4CC4)ccn3)s2)n1` [I-126, N-((R)-1-(4-(cyclopropanesulfonamido)pyridin-2-yl)-2-((R)-2-oxa-7-azaspiro[4.4]nonan-7-yl)ethyl)-5-(6-ethoxypyrazin-2-yl)thiazole-2-carboxamide] was 5 to 25 nM.
For the molecule `CCOc1cncc(-c2cnc(C(=O)N[C@@H](CN3CC[C@]4(CCOC4)C3)c3cc(NS(=O)(=O)C4CC4)ccn3)s2)n1` [I-127, N-((S)-1-(4-(cyclopropanesulfonamido)pyridin-2-yl)-2-((S)-2-oxa-7-azaspiro[4.4]nonan-7-yl)ethyl)-5-(6-ethoxypyrazin-2-yl)thiazole-2-carboxamide], the IC50 was 5 to 25 nM.
